Measurements as given in patent publication US20090081143A1, “Extracts From Black Yeast For Whitening Skin” (priority 2007, published 2009).

Test system: UV-B induced tan
Assay: Whitening action: fading of UV-B induced tan on the backs of volunteers (Minolta Chromameter reflectance)
Type: in vivo, human
Conditions: FIG. 5; 1% extract or 2% kojic acid in Example 4 cream; 2 mg/cm^2 once a day; nine volunteers
Method: A comparative study is done to determine the whitening efficacy of an Exophiala mansonii-derived enzyme extract in comparison to the efficacy of a known tyrosinase inhibitor, kojic acid. More specifically, the study was designed to study the lightening effect of these materials (reduction in tanning) using the fading of UV-B induced tan as a marker. Two samples are prepared. The first sample contains the composition described in Example 4. The second sample has the same composition as that described in Example 4 except that 2% kojic acid is substituted for the 1% Exophiala mansonii enzyme extract. Nine volunteers participate in the study. The volunteer panelists are in normal health with no evidence of acute or chronic disease including dermatological problems. […] Tanning is observed for six days after irradiation at which point color measurements are made using a Minolta Chromameter which measures the difference in reflectance of the skin, L. The change in the value of the difference in reflectance, ΔL*, is measured against a baseline skin color value of untreated irradiated skin measured on day 6. […] The observed reflectance values for all the time points are recorded, and the area under the curve for each test site was calculated. The Whitening Factor is calculated as the area under the curve of the treated site subtracted from the untreated site, and is shown in FIG. 5.

For `O=c1cc(CO)occ1O` [kojic acid], the “Whitening Factor (area under the curve of the treated site subtracted from the untreated site)” value was 1.8.
